Experiments:
IDH1 wt (wild type) = IDH1 wt (wild type) (Homo sapiens, UniProt O75874); test: IDH1 enzyme activity test in vitro (IDH1 wild type); format: biochemical
Protocol: (§1) IDH1 mutant catalyzes the NADPH-dependent reduction of α-KG (α-ketoglutaric acid) to 2-HG (2-hydroxyglutaric acid), and the consumed NADPH can be read out by fluorescence.
(§2) Basic reaction buffer: 50 mM KH2PO4, pH 7.5, 10 mM […], 10% glycerol, 150 mM NaCl, 0.05% BSA (bovine serum albumin), 2 mM b-ME (2-mercaptoethanol), 0.003% Brij35 (oxyethylene lauryl ether)
(§3) Substrates and cCofactors:
IDH1 wt (wild type): 65 μM isocitrate ±50 μM NADP
(§4) 1.33× enzyme (no control wells), buffer and NADP or NADPH (control wells) were added to the wells of a reaction plate. The compounds to be tested were dissolved in 100% DMSO, then added to the enzyme mixture (Echo550, nanoliter level) and incubated for 60 min after brief centrifugation. A mixture of 4× substrate and cofactor was added to start the reaction, briefly centrifuged, shaken, and incubated at room temperature for 45 min. A mixture of 3× lipoamide dehydrogenase and resazurin was prepared, added to the reaction solution to test the amount of the generated or remaining NADPH, incubated at room temperature for 10 min after simple centrifugation, and measured using a multifunctional microplate reader Envision (Ex/Em±535/590 nm).

IDH1 (R132C) = IDH1 (R132C) (Homo sapiens, UniProt O75874, R132C); test: IDH1 enzyme activity test in vitro (IDH1 R132C); format: biochemical
IDH1 (R132C), sequence (O75874 whole entry R132C): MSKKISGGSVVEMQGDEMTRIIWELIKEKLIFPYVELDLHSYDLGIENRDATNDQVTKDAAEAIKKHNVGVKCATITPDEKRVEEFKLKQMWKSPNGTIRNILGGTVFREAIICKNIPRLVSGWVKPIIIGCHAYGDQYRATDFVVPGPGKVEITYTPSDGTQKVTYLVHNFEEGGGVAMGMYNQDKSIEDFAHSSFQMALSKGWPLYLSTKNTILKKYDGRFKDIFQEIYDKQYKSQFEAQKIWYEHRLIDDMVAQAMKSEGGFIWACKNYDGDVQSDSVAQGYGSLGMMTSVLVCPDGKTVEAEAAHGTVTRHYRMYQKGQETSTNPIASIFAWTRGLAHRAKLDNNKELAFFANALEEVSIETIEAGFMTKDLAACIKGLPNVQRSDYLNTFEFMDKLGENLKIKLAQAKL
Protocol: as §1, §2, §3, §4

U87MG IDH1-R132H = biological target: T1, U87MG IDH1-R132H (Homo sapiens, UniProt O75874, R132H); test: IDH1 cytological activity test, 2HG content in cell culture supernatant by LC-MS; format: cell-based
T1 construct: expressed in transfected cells; host or cells: U87MG
T1 sequence (O75874 whole entry R132H): as the sequence (O75874 whole entry R132C) above, with C132H counted along it
Protocol: In this study, after co-incubating the compound with IDH1 mutant cell lines, the 2HG content in the cell culture supernatant was detected by LC-MS to determine the inhibitory activity of the compound on IDH1 mutants. IDH1 catalyzes the reduction of isocitrate to α-ketoglutaric acid (α-KG) in vivo, while IDH1 mutants further catalyze the reduction of α-KG to 2-hydroxyglutaric acid (2HG).
U87MG-IDH1-R132H cell line is a stable transfected cell line that can stably express IDH1-R132H mutant by transfecting U87MG cells with IDH1-R132H, and HT1080 cell line contains endogenous IDH1-R132C mutant.
The experimental process is as follows:
1) The compound was 3-fold serially diluted with DMSO and added to a cell culture plate, with a total of 10 concentrations, each concentration in duplicate. Negative control wells contained DMSO only, and positive control wells contained BAY1436032 at a final concentration of 5 μM. The final concentration of DMSO in all wells was 0.5%.
2) The IDH1 mutant cell line was seeded into the compound-containing cell culture plate at a density of 40,000 cells/well. Cells were co-incubated with compounds for 3 days in a 37° C., 5% CO2 incubator.
3) After 3 days, 10 μl of cell culture supernatant was taken, diluted 21 times with 200 μl of ddH2O to 210 μl and mixed well. […]

IDH1 (R132H) = IDH1 (R132H) (Homo sapiens, UniProt O75874, R132H); test: IDH1 enzyme activity test in vitro (IDH1 R132H); format: biochemical
IDH1 (R132H), sequence (O75874 whole entry R132H): as the sequence (O75874 whole entry R132C) above, with C132H counted along it
Protocol: as §1, §2, §3, §4

[1] = Pharmacokinetic evaluation in mice; parameters: species or system CD-1 mice; conditions: mouse, in vivo
Protocol: The pharmacokinetic parameters of the compound represented by formula (I) were detected in mice.
1) Experimental drug: compound represented by formula (I);
2) Experimental animals: 8 male CD-1 mice aged 7-10 weeks, divided into 2 groups, 4 mice in each group;
3) Drug preparation: for the tail vein injection group, an appropriate amount of the drug was weighed out and dissolved in a mixed solvent of DMSO: 20% hydroxypropyl beta-cyclodextrin (HPbCD)±10:90 to prepare a solution of 0.5 mg/mL; for the gavage administration group, an appropriate amount of the drug was weighed out and dissolved in a mixed solvent of DMSO: polyoxyethylene castor oil EL (Cremophor EL): 5% sulfobutylcyclodextrin (Captisol)±5:10:85 to prepare into a suspension.
Animals in group 1 were given a single dose of 1 mg/kg drug at a concentration of 0.5 mg/mL via tail vein injection, and animals in group 2 were given the compound at a dose of 20 mg/kg at a concentration of 2 mg/mL by gavage. Animals were cross-collected for plasma samples at 0.0833 (the tail vein injection group only), 0.25, 0.5, 1, 2, 4, 6, 8 and 24 h after administration. The drug concentration in the plasma samples was determined by LC-MS/MS method, and the kinetic parameters of the tested drugs were obtained in Table 11: […]

[2] = Solid stability test (crystalline form by XRPD); format: physicochemical; conditions: Light (total illuminance = 1.2 × 10^6 Lux, Near UV = 200 w · hr/m^2, open)
[3] = Solid stability test (crystalline form by XRPD); format: physicochemical
Protocol: According to the “Guidelines for Stability Test of Raw Materials and Preparations” (General Principles 9001 of Part Four of Chinese Pharmacopoeia 2015 Edition), crystalline form E of the compound represented by formula (I) was investigated for stability at high temperature (60° C., open), high humidity (room temperature/relative humidity 92.5%, open) and strong light (5000 lx, closed).
About 10 mg of compound represented by formula (I) was accurately weighed out, placed in a dry and clean glass bottle, spread out into a thin layer and covered with aluminum foil with small holes under the influence factor test conditions (60° C., 92.5% RH) and accelerated conditions (40° C./75% RH and 60° C./75% RH). The samples placed under the condition of light (visible light 1200000 Lux, ultraviolet 200 W) were in transparent glass bottles, with one group fully exposed and the other fully packaged with aluminum foil. Samples in duplicate were placed under each condition at each time point, and the samples for XRPD detection were placed separately. Samples placed under different conditions were sampled for XRPD detection at the planned test end point, and the test results were compared with the initial test results at Day 0.

[4] = Hygroscopicity study by dynamic vapor sorption (DVS); format: physicochemical; conditions: 25° C. and 80% RH
Protocol: Dynamic Vapor Sorption (DVS) Method of the Present Disclosure
Instrument model: SMS DVS intrinsic dynamic moisture adsorption instrument
Test conditions: 10 mg of the sample was weighed out and placed in a DVS sample tray for testing.
The detailed DVS parameters were as follows:
RH (%) test gradient range: 0%-95%-0%
The hygroscopicity evaluation is classified as follows:
SMS DVS intrinsic Dynamic Vapor Sorption Instrument

IDH1 wt (wild type), sequence (O75874 whole entry): as the sequence (O75874 whole entry R132C) above, with C132R counted along it

Row | inhibitory effect on wild-type IDH protein (IDH1 wt (wild type)) | inhibitory effect on mutant IDH1R132C at the enzymatic level (IDH1 (R132C)) | 2-HG inhibitory effect on U87MG glioma cells with IDH1R132H mutation (U87MG IDH1-R132H) | IC50 (U87MG IDH1-R132H; 2-HG inhibition, cells co-incubated with compound for 3 days) [nM] | inhibitory effect on mutant IDH1R132H at the enzymatic level (IDH1 (R132H)) | pharmacokinetic properties in mice [1] | Crystalline form ([2]; 5 days) | Crystalline form ([2]; 10 days) | Crystalline form ([3]; 0 days (initial)) | Crystalline form ([3]; 25° C./92.5% RH, open, 5 days) | Crystalline form ([3]; 25° C./92.5% RH, open, 10 days) | Crystalline form ([3]; 40° C./75% RH, open, 1 month) | Crystalline form ([3]; 40° C./75% RH, open, 2 months) | Crystalline form ([3]; 40° C./75% RH, open, 3 months) | Crystalline form ([3]; 60° C., open, 5 days) | Crystalline form ([3]; 60° C., open, 10 days) | Crystalline form ([3]; 60° C./75% RH, open, 1 month) | Crystalline form ([3]; 60° C./75% RH, open, 2 months) | Hygroscopic classification [4] | hygroscopic weight gain ΔW [4] [%] | Compound
1 | no inhibitory effect | good inhibitory effect | good 2-HG inhibitory effect | 38.2 | good inhibitory effect | good pharmacokinetic properties | – | – | – | – | – | – | – | – | – | – | – | – | – | – | O=C(O)CCc1ccc2c(c1)nc(Nc1ccc(OC(F)(F)F)cc1)n2[C@@H]1CCCc2ccccc21 [Compound represented by formula (I)]
2 | – | – | – | – | – | – | Crystalline form B | Crystalline form B | Crystalline form B | Crystalline form B | Crystalline form B | Crystalline form B | Crystalline form B | Crystalline form B | Crystalline form B | Crystalline form B | Crystalline form B | Crystalline form B | non-hygroscopic | 0.09 | O=C(O)CCc1ccc2c(c1)nc(Nc1ccc(OC(F)(F)F)cc1)n2[C@@H]1CCCc2ccccc21

Source: patent US12391653B2, “Salt form and crystal form of mutant IDH1 inhibitor and preparation method therefor” (KPC PHARMACEUTICALS, INC, priority 2019, dated 2025)
